This note sets out measurements from US8822517B2, “Arylosulfonamides for the treatment of CNS diseases” (Adamed SP. Z O.O., priority 2010, dated 2014).

Test [1] addresses T1, serotonine transporter (SERT) receptor (Homo sapiens, UniProt P31645).
T1 construct: expressed in transfected cells; host or cells: CHO cells
Kind of test: Binding assay SERT (h), [3H]imipramine, CHO cells. The note with it: read-out: SERT [%]. The method in brief:
(§1)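 Compounds were screened at 1×10^−6 M, and bound radioactivity was measured by scintillation counting. Specific binding equals total binding minus nonspecific binding obtained with an excess of unlabelled ligand.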

Test [2] concerns sigma σ receptor. Kind of test: Binding assay σ (non-selective), [3H]DTG, rat cerebral cortex. The note with it: percent inhibition of control specific binding; compounds tested at 1×10^−6 M. The method in brief:
as §1

Test [3] relates to adrenergic α1 receptor. In words: Binding assay α1 (non-selective), [3H]prazosin, rat cerebral cortex. The settings on record: percent inhibition of control specific binding; compounds tested at 1×10^−6 M. The method in brief: as §1
The target in test [4] is T2, muscarinic M3 receptor (Homo sapiens, UniProt P20309).
T2 construct: expressed in transfected cells; host or cells: CHO cells
T2 sequence (P20309 whole entry): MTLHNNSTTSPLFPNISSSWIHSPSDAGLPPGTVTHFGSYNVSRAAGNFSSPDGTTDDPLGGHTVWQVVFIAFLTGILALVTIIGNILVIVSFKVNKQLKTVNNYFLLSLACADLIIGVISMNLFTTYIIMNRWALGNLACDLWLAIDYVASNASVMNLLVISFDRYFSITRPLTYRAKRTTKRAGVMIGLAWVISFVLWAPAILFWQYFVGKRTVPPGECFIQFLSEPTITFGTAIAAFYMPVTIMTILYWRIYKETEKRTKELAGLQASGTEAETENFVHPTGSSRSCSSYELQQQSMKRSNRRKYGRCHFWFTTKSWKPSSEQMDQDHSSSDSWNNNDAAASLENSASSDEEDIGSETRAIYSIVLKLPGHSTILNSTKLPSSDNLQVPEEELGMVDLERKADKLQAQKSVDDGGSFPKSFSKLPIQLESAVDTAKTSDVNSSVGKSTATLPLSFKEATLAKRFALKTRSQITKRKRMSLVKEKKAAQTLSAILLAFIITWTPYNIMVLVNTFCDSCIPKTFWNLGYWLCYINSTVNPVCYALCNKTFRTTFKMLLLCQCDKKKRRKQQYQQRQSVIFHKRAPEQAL
Kind of test: Binding assay M3 (h), [3H]4-DAMP, CHO cells. The settings on record: read-out: M3 [%]. In outline: as §1

Test [5] deals with T3, serotoninergic receptor 5-HT2C (Homo sapiens, UniProt P28335).
T3 construct: expressed in transfected cells; host or cells: HEK-293 cells
T3 sequence (P28335 33-458): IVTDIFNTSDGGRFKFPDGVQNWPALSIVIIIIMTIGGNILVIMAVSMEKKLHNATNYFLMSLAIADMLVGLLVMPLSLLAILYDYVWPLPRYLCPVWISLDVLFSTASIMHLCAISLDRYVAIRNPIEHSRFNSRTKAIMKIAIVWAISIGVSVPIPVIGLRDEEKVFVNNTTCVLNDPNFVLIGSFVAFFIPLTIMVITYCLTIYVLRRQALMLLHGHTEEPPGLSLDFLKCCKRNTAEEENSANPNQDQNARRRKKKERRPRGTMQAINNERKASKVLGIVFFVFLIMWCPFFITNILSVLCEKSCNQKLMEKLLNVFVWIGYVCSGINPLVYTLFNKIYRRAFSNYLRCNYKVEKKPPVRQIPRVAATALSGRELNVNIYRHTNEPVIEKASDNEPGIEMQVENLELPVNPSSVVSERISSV
Kind of test: Binding assay 5-HT2C (h), [3H]mesulergine, HEK-293 cells. The note with it: read-out: 5-HT2C [%]. The method in brief:
as §1

Test [6] deals with T4, serotoninergic 5-HT6 receptor (Homo sapiens, UniProt P50406). Kind of test: Cellular functional assay, serotoninergic 5-HT6 receptor (agonism/antagonism). The format is cell-based. The settings on record: for activation at 1 µM: agonist effect, percent of control specific agonist response, compounds tested at 1×10^−6M, read-out: 5-HT6-ag [%]; for inhibition at 1 µM: read-out: 5-HT6-antag. [%]. The protocol:
(§2) The compounds were tested at the concentration of 1×10^−6M.
(§3) In the Tables ag refers to agonism, and antag to antagonism).

For test [7], the target named is T5, serotoninergic 5-HT7 receptor (Homo sapiens, UniProt P34969). In words: Cellular functional assay, serotoninergic 5-HT7 receptor (agonism/antagonism). The settings on record: for activation at 1 µM: agonist effect, percent of control specific agonist response, compounds tested at 1×10^−6M, read-out: 5-HT7-ag [%]; for inhibition at 1 µM: read-out: 5-HT7-antag. [%]. The format is cell-based. The protocol: as §2, §3
T5 sequence (P34969 whole entry): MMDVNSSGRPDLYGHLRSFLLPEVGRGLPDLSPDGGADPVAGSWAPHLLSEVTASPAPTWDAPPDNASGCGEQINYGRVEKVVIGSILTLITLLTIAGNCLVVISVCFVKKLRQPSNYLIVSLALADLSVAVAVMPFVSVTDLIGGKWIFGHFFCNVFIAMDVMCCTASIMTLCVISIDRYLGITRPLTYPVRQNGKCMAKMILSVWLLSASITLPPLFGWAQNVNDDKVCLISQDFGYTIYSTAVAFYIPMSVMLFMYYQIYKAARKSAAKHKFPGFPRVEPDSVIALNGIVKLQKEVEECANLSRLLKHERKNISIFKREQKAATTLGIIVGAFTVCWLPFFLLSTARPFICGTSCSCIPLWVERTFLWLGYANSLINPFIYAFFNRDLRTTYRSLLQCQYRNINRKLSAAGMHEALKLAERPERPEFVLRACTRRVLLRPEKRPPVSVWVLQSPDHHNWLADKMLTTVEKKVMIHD

The target of test [8] is dopaminergic D3 receptor (Homo sapiens, UniProt P35462). Kind of test: Binding assay D3 (h), [3H]methyl-spiperone, CHO cells. Also on record: expressed in transfected cells; host or cells: CHO cells. The note with it: read-out: D3 [%]. In outline: as §1
dopaminergic D3 receptor, sequence (P35462 whole entry): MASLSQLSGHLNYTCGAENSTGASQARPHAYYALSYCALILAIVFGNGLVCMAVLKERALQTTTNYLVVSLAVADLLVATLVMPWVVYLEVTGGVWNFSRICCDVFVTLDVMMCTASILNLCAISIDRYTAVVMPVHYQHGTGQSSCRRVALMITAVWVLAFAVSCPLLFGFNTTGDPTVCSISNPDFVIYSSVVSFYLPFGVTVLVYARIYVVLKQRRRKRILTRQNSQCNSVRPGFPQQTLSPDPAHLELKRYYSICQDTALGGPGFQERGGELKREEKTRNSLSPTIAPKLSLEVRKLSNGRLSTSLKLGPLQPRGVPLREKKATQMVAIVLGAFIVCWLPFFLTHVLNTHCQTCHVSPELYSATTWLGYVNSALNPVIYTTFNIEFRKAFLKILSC
For test [9], the target named is T4, serotoninergic 5-HT6 receptor. In words: Binding assay 5-HT6 (h), [3H]LSD, CHO cells. Also noted: expressed in transfected cells; host or cells: CHO cells. The note with it: read-out: 5-HT6. The method in brief:
as §1

The target of test [10] is T5, serotoninergic 5-HT7 receptor. In words: Binding assay 5-HT7 (h), [3H]LSD, CHO cells. Also on record: expressed in transfected cells; host or cells: CHO cells. The note with it: read-out: 5-HT7. In outline: as §1
In test [11] the target is T6, adrenergic α2C receptor (Homo sapiens, UniProt P18825).
T6 sequence (P18825 1-462): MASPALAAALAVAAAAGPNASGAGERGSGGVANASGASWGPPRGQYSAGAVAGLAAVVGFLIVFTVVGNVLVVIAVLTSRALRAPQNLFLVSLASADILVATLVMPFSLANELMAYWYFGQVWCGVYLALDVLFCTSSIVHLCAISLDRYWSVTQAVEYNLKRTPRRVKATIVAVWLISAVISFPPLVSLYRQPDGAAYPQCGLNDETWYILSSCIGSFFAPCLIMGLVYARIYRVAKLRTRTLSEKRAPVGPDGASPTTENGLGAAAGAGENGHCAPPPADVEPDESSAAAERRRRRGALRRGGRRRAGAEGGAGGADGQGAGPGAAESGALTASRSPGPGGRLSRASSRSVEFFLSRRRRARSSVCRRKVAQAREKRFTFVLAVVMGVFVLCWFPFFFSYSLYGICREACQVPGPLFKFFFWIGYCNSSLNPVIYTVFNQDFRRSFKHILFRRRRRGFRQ
In words: Binding assay α2C (h), [3H]RX 821002, CHO cells. The settings on record: read-out: α2C [%]. Also on record: expressed in transfected cells; host or cells: CHO cells. The method in brief:
as §1

For test [12], the target named is dopaminergic D2 receptor (Homo sapiens, UniProt P14416). Kind of test: Binding assay D2S (h), [3H]methyl-spiperone, HEK-293 cells. The note with it: read-out: D2 [%]. Also on record: expressed in transfected cells; host or cells: HEK-293 cells. In outline: as §1
dopaminergic D2 receptor, sequence (P14416 1-414 isoform P14416-2): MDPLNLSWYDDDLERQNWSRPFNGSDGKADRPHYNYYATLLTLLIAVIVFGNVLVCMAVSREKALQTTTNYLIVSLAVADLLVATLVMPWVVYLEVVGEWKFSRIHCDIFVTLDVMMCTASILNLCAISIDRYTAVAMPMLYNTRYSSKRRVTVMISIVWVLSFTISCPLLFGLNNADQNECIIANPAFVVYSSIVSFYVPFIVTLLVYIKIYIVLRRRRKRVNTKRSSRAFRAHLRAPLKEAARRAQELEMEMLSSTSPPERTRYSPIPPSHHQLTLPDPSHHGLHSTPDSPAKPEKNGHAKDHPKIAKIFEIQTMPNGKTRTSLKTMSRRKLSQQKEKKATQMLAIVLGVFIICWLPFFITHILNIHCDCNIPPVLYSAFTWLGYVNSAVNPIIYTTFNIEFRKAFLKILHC
The target of test [13] is T7, serotoninergic 5-HT1A receptor (Homo sapiens, UniProt P08908).
T7 sequence (P08908 1-422): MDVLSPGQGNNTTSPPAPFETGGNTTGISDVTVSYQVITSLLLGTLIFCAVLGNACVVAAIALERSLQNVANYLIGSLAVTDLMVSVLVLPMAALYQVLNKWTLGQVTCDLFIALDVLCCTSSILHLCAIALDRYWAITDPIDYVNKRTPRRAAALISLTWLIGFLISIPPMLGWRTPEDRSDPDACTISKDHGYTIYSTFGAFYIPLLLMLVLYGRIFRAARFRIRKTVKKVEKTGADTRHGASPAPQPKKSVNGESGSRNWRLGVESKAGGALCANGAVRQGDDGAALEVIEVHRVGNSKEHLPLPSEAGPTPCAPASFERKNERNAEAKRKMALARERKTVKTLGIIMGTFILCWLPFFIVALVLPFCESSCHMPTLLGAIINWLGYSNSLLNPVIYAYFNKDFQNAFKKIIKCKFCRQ
In words: Binding assay 5-HT1A (h), [3H]8-OH-DPAT, HEK-293 cells. Also noted: expressed in transfected cells; host or cells: HEK-293 cells. The note with it: read-out: 5-HT1A. In outline: as §1

Test [14] deals with serotoninergic 5-HT2A receptor (Homo sapiens, UniProt P28223). In words: Binding assay 5-HT2A (h), [3H]ketanserin, HEK-293 cells. Also noted: expressed in transfected cells; host or cells: HEK-293 cells. The note with it: read-out: 5-HT2A. In outline: as §1
serotoninergic 5-HT2A receptor, sequence (P28223 whole entry): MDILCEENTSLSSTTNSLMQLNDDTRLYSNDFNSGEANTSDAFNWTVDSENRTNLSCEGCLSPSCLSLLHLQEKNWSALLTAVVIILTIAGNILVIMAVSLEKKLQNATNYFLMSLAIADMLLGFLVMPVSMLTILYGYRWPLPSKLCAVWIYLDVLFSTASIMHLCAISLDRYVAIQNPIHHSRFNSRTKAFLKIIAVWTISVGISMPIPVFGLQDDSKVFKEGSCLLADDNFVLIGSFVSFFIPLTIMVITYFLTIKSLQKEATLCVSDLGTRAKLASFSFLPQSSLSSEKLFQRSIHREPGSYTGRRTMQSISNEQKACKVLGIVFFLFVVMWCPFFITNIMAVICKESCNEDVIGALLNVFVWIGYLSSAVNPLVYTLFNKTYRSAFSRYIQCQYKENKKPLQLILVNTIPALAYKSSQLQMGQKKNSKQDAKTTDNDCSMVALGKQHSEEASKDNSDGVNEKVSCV
Test [15] deals with histaminergic H1 receptor (Homo sapiens, UniProt P35367). In words: Binding assay H1 (h), [3H]pyrilamine, HEK-293 cells. Also on record: expressed in transfected cells; host or cells: HEK-293 cells. The note with it: read-out: H1 [%]. In outline: as §1
histaminergic H1 receptor, sequence (P35367 whole entry): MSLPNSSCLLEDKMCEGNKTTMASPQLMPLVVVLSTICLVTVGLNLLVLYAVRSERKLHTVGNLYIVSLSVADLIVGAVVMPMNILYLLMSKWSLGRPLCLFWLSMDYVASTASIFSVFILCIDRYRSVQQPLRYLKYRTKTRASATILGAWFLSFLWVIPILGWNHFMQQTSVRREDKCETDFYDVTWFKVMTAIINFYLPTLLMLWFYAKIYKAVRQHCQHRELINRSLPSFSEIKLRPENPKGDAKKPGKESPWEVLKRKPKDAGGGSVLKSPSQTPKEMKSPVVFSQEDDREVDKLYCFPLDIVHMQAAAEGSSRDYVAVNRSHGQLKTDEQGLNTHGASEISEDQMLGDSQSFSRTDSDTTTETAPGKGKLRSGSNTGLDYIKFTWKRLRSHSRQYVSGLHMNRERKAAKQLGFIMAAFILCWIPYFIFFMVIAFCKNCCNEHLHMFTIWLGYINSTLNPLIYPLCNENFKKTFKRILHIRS

T4 sequence (P50406 whole entry): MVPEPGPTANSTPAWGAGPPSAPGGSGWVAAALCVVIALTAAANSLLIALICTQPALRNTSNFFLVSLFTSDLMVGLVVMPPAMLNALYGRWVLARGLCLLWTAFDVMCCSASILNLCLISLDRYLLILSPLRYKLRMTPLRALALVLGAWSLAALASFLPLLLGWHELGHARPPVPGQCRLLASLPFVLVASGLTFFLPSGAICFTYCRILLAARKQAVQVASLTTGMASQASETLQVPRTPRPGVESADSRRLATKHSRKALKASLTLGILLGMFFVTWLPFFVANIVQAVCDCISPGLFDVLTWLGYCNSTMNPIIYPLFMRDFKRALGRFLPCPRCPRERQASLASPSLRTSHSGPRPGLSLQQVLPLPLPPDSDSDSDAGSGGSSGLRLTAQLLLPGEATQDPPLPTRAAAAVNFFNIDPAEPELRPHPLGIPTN
T1 sequence (P31645 whole entry): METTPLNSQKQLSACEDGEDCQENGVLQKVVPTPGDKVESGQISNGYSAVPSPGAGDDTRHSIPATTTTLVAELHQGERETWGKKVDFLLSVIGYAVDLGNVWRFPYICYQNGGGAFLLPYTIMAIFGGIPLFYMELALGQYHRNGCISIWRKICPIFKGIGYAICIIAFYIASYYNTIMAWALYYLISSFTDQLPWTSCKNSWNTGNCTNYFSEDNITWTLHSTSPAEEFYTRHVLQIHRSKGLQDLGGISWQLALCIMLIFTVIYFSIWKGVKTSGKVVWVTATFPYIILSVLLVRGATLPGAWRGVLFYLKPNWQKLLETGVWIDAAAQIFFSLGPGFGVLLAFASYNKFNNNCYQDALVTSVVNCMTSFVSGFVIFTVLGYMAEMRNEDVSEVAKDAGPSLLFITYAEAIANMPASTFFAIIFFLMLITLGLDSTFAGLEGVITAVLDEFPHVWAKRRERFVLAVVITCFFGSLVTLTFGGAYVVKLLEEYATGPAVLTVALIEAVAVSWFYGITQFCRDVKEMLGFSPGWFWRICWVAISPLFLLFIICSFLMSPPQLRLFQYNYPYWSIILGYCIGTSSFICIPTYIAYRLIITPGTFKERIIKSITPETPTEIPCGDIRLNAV

On to `O=S(=O)(NCCN1CCC(c2noc3cc(F)ccc23)CC1)c1ccc2ccccc2c1` [Compound 24, N-[2-[4-(6-Fluoro-1,2-benzoxazol-3-yl)piperidin-1-yl]ethyl]naphthalene-2-sulphonamide], for which the inhibition at 1 µM is 53% in test [1]; 10% in test [4]; 65% in test [5]; 9% in test [6]; 99% in test [7]; 98% in [8]. Further, the inhibition at 1 µM in test [9] is 76%; in test [10], 95%; in test [11] it was 99%; in [12], 99%; in [13] it was 80%; in [14] it was 100%. Besides, the inhibition at 1 µM in [15] was 56%. In [2], the “σ [%]” value was 80%. In [3], the “α1 [%]” value was 97%. Further, the activation at 1 µM in [6] stood at 2%; in test [7] it was 0%.
In the case of `O=S(=O)(NCCN1CCN(c2nsc3ccccc23)CC1)c1cccc2ccccc12` [Compound 9, N-(2-(4-(1,2-Benzothiazol-3-yl)piperazin-1-yl)ethyl)naphthalene-1-sulphonamide], the inhibition at 1 µM in test [1] is 29%; in test [4] it was -2%; in test [5] it was 24%; in [6] it was -4%; in [7], 48%; in test [8], 90%. Besides, the inhibition at 1 µM in test [9] was 22%; in test [10] it was 98%; in [11], 98%; in test [12], 91%; in test [13], 98%; in [14], 99%. Further, in [15], the inhibition at 1 µM turned out to be 77%. For the same compound, the “σ [%]” value in test [2] stood at 23%. Also, in test [3], the “α1 [%]” value is 74%. Further, the activation at 1 µM in test [6] and in test [7] was 0% in each case.
`O=S(=O)(NCCCN1CCC(c2noc3cc(F)ccc23)CC1)c1ccc2ccccc2c1` [Compound 21, N-[3-[4-(6-Fluoro-1,2-benzoxazol-3-yl)piperidin-1-yl]propyl]naphthalene-2-sulphonamide]: the inhibition at 1 µM in test [1] came out at 46%; in [4], 2%; in test [5] it was 87%; in test [6], 39%; in [7] it was 98%; in [8], 97%. Also, the inhibition at 1 µM in test [9] worked out at 93%; in test [10] it was 99%; in test [11] it was 98%; in test [12] it was 99%; in [13] it was 77%; in test [14], 100%. For the same compound, the inhibition at 1 µM in [15] was determined as 90%. Further, in [2], the “σ [%]” value worked out at 82%. The “α1 [%]” value in test [3] is recorded as 97%. Further, the results for the activation at 1 µM in test [6] and in test [7] were -2% and 0%, respectively.
Consider `O=c1[nH]c2ccc(S(=O)(=O)NCCCCN3CCN(c4nsc5ccccc45)CC3)cc2o1` [Compound 4, N-(4-(4-(1,2-Benzothiazol-3-yl)piperazin-1-yl)butyl)-2-oxo-3H-1,3-benzoxazole-6-sulphonamide], for which the inhibition at 1 µM in [1] was found to be 26%; in [4], 3%; in test [5] it was 91%; in [6], 37%; in test [7], 81%; in test [8], 98%. For the same compound, the inhibition at 1 µM in test [9] came out at 87%; in test [10] it was 97%; in test [11], 96%; in test [12] it was 96%; in test [13], 99%; in test [14], 99%. Also, the inhibition at 1 µM in [15] turned out to be 100%. Further, in test [2], the “σ [%]” value was found to be 1%. Further, the “α1 [%]” value in [3] was 96%. The activation at 1 µM in test [6] and in [7] was -1% in each case.
With `Cc1cccc(S(=O)(=O)NCCCCN2CCC(c3noc4cc(F)ccc34)CC2)c1` [Compound 19, N-[4-[4-(6-Fluoro-1,2-benzoxazol-3-yl)piperidin-1-yl]butyl]-3-methylbenzenesulphonamide], the inhibition at 1 µM in test [1] came out at 8%; in [4], 9%; in test [5] it was 56%; in [6], 23%; in test [7] it was 99%; in [8], 90%. Moreover, the inhibition at 1 µM in test [9] worked out at 69%; in test [10] it was 100%; in test [11], 100%; in [12] it was 97%; in test [13], 64%; in test [14], 100%. Besides, the inhibition at 1 µM in test [15] came to 79%. The “σ [%]” value in test [2] is 92%. In addition, the “α1 [%]” value in [3] amounted to 99%. Also, the activation at 1 µM in test [6] and in test [7] was -1% throughout.
